Source: the NIST ThermoML archive (doi:10.1021/acs.jced.8b00213)

Assays:
[1] = xn = mol fraction of the nth substance listed; conditions: 100 kPa, Liquid, x1 = 0.25; for electrical conductivity: Alternating current cell with electrodes; for viscosity: Falling or rolling sphere viscometry; for speed of sound: Single path-length method; for mass density: Vibrating tube method
[2] = refractive index (Na D-line) (dimensionless); xn = mol fraction of the nth substance listed; conditions: 100 kPa, Liquid, Standard Abbe refractometry, x1 = 0.25

C[N+](C)(C)Cc1ccccc1.[Cl-] [trimethylbenzylammonium chloride] + OCCOCCO
Conditions	electrical conductivity, [1] [S/m]	mass density, [1] [kg/m3]	refractive index, [2]	speed of sound, [1] [m/s]	viscosity, [1] [mPa·s]
283.15 K	0.088	1120.06	1.4954	1782.6	263.4
288.15 K	0.109	1116.91	1.494	1769	185.4
293.15 K	0.132	1113.75	1.4925	1755.8	134.1
298.15 K	0.165	1110.6	1.4911	1742.9	98.6
303.15 K	0.201	1107.46	1.4897	1730.2	74.8
308.15 K	0.254	1104.33	1.4884	1717.7	57.9
313.15 K	0.311	1101.21	1.4869	1705.3	44.4
318.15 K	0.356	1098.09	1.4855	1693	34.8
323.15 K	0.398	1094.99	1.4841	1680.8	27.8
328.15 K	0.474	1091.89	1.4826	1668.7	23.2
333.15 K	0.539	1088.79	1.4813	1656.6	18.7
338.15 K	0.611	1085.7	1.4798	1644.7	16
343.15 K	0.681	1082.63	1.4784	1633.1	14.2

C[N+](C)(C)Cc1ccccc1.[Cl-] [trimethylbenzylammonium chloride] + OCC(O)CO
Conditions	electrical conductivity, [1] [S/m]	mass density, [1] [kg/m3]	refractive index, [2]	speed of sound, [1] [m/s]	viscosity, [1] [mPa·s]
283.15 K	0.012	1190.87	1.5126	1992.6	–
288.15 K	0.019	1187.92	1.5114	1970.8	1874.9
293.15 K	0.027	1184.97	1.5102	1953	1170.9
298.15 K	0.039	1182.02	1.5089	1937.6	753.5
303.15 K	0.055	1178.99	1.5078	1923.4	501.5
308.15 K	0.077	1176.07	1.5064	1910.1	342.7
313.15 K	0.104	1173.14	1.5052	1897.2	238.3
318.15 K	0.138	1170.19	1.5039	1884.6	171.8
323.15 K	0.181	1167.23	1.5027	1872.3	126.7
328.15 K	0.231	1164.25	1.5014	1860	95.4
333.15 K	0.283	1161.27	1.5002	1847.9	73
338.15 K	0.34	1158.29	1.4989	1835.8	58.2
343.15 K	0.413	1155.33	1.4977	1824.2	46.3

CCCC[N+](CCCC)(CCCC)Cc1ccccc1.[Cl-] [benzyltributylammonium chloride] + OCCOCCO
Conditions	electrical conductivity, [1] [S/m]	mass density, [1] [kg/m3]	refractive index, [2]	speed of sound, [1] [m/s]	viscosity, [1] [mPa·s]
283.15 K	0.019	1063.94	1.4957	1706.8	961.86
288.15 K	0.025	1060.76	1.4945	1689.5	644.25
293.15 K	0.032	1057.65	1.4929	1673.2	433.54
298.15 K	0.04	1054.57	1.4909	1658.1	310.37
303.15 K	0.052	1051.5	1.4893	1643.5	224.9
308.15 K	0.066	1048.41	1.4878	1629.5	168.37
313.15 K	0.081	1045.31	1.486	1615.6	125.21
318.15 K	0.099	1042.22	1.4849	1602	96.78
323.15 K	0.115	1039.12	1.4836	1588.6	76.23
328.15 K	0.13	1036.03	1.4815	1575.3	62.63
333.15 K	0.154	1032.94	1.4804	1562.1	50.43
338.15 K	0.178	1029.85	1.4786	1549.2	40.68
343.15 K	0.207	1026.78	1.4776	1536.7	32.76

CCCC[N+](CCCC)(CCCC)Cc1ccccc1.[Cl-] [benzyltributylammonium chloride] + OCC(O)CO
Conditions	electrical conductivity, [1] [S/m]	mass density, [1] [kg/m3]	refractive index, [2]	speed of sound, [1] [m/s]	viscosity, [1] [mPa·s]
283.15 K	0.003	1112.02	1.5095	1908	–
288.15 K	0.005	1108.9	1.5079	1866.4	–
293.15 K	0.007	1105.78	1.5065	1833	–
298.15 K	0.009	1102.66	1.5051	1805.3	2328.1
303.15 K	0.013	1099.54	1.5036	1782	1709.2
308.15 K	0.019	1096.41	1.5021	1761.7	1112.1
313.15 K	0.025	1093.28	1.5006	1743.5	740.9
318.15 K	0.038	1090.07	1.4992	1726.8	497.7
323.15 K	0.047	1086.95	1.4977	1711.2	346.1
328.15 K	0.065	1083.85	1.4962	1696	254.6
333.15 K	0.086	1080.72	1.4948	1681.5	185.3
338.15 K	0.109	1077.58	1.4933	1667.3	138.1
343.15 K	0.138	1074.43	1.4917	1653.9	105
